Literature values, collected in patent publication US20190125725A1, “PHARMACEUTICAL COMPOSITIONS COMPRISING BRIVARACETAM” (Jubilant Generics Limited, priority 2016, published 2019).

Conditions: High solubility and permeability

CCC[C@@H]1CC(=O)N([C@@H](CC)C(N)=O)C1 [Brivaracetam, (2S)-2-[(4R)-2-oxo-4-propyltetrahydro-1H-pyrrol-1-yl] butanamide]
Biopharmaceutics Classification System class: class I
